Test results reported in ChEMBL document CHEMBL1201862, “PubChem BioAssay data set” (2004).
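Assay format: 96-well plates, 48-hour exposure. GI50 marks 50% less growth.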 Calls of active or inactive are those of the source. No stated cut-off is given here; in the data, active = GI50 up to about 1.1 µM and inactive = higher.

Tests used:
Assay in all cases: NCI anticancer screen, dose series, 48 h
A549 = test system: A549
NCI-H460 = test system: NCI-H460
CCRF-CEM = test system: CCRF-CEM
SF-539 = test system: SF-539
HCT-15 = test system: HCT-15
NCI-H23 = test system: NCI-H23
OVCAR-3 = test system: OVCAR-3
786-0 = test system: 786-0
SNB-19 = test system: SNB-19
OVCAR-4 = test system: OVCAR-4
MDA-MB-231 = test system: MDA-MB-231
HCC 2998 = test system: HCC 2998
Hs-578T = test system: Hs-578T
SNB-75 = test system: SNB-75
UACC-62 = test system: UACC-62
SF-295 = test system: SF-295
SR = test system: SR
RPMI-8226 = test system: RPMI-8226
RXF 393 = test system: RXF 393

Measured: GI50

COC(=O)C(C(=O)C(=O)Nc1c(C)cccc1C(C)(C)C)c1nc2ccc(Cl)cc2nc1O (centres undefined)
inactive: A549 > 100 µM | NCI-H460 > 100 µM | CCRF-CEM > 100 µM | SF-539 > 100 µM | NCI-H23 > 100 µM | OVCAR-3 > 100 µM | 786-0 > 100 µM | SNB-19 86.5 µM | OVCAR-4 > 100 µM | MDA-MB-231 > 100 µM | HCC 2998 > 100 µM | Hs-578T > 100 µM | SNB-75 > 100 µM | UACC-62 > 100 µM | SF-295 > 100 µM | SR > 100 µM | RPMI-8226 > 100 µM | RXF 393 > 100 µM
> 100 µM: HCT-15

Nc1ccc(S(=O)(=O)C23CC4CC(CC(C4)C2)C3)cc1
> 100 µM: HCT-15
inactive: A549 > 100 µM | NCI-H460 74.3 µM | CCRF-CEM 49.8 µM | SF-539 > 100 µM | NCI-H23 > 100 µM | OVCAR-3 77.8 µM | 786-0 > 100 µM | SNB-19 > 100 µM | MDA-MB-231 > 100 µM | HCC 2998 > 100 µM | Hs-578T > 100 µM | UACC-62 > 100 µM | SF-295 > 100 µM | SR 61.7 µM | RPMI-8226 55.3 µM | RXF 393 30.1 µM

CC#N.O[C@@H]1CCCC[C@@H]1O.O[C@@H]1CCCC[C@@H]1O.[TeH2]
inactive: A549 45.8 µM | NCI-H460 3.72 µM | CCRF-CEM 11.6 µM | SF-539 > 100 µM | NCI-H23 21.2 µM | OVCAR-3 31.8 µM | 786-0 34.1 µM | SNB-19 33.1 µM | OVCAR-4 31.8 µM | HCC 2998 > 100 µM | SNB-75 > 100 µM | UACC-62 > 100 µM | SF-295 17.3 µM | SR 21.1 µM | RPMI-8226 37.2 µM | RXF 393 72.3 µM
18.8 µM: HCT-15

CC(=O)C(CN(C)C)C(c1ccccc1)c1c(O)c2ccccc2oc1=O (centres undefined)
inactive: A549 > 100 µM | NCI-H460 > 100 µM | CCRF-CEM > 100 µM | SF-539 > 100 µM | NCI-H23 > 100 µM | OVCAR-3 > 100 µM | 786-0 > 100 µM | SNB-19 > 100 µM | OVCAR-4 > 100 µM | HCC 2998 > 100 µM | SNB-75 14.3 µM | UACC-62 > 100 µM | SF-295 > 100 µM | SR > 100 µM | RPMI-8226 > 100 µM | RXF 393 > 100 µM
> 100 µM: HCT-15

CN(C)CC1(Cc2ccccc2)CC/C(=C\c2ccccc2)C1=O (centres undefined)
19.8 µM: HCT-15
inactive: A549 96.4 µM | NCI-H460 28.2 µM | CCRF-CEM 27 µM | SF-539 24.9 µM | NCI-H23 44.8 µM | OVCAR-3 31.4 µM | 786-0 35.1 µM | SNB-19 22.2 µM | OVCAR-4 51.3 µM | HCC 2998 19.9 µM | SNB-75 57.3 µM | UACC-62 15.1 µM | SF-295 62.2 µM | SR 34 µM | RPMI-8226 23.9 µM | RXF 393 35.6 µM

COC1(Cc2ccccc2)C(=O)c2ccccc2N1C(C)=O (centres undefined)
> 100 µM: HCT-15
inactive: A549 > 100 µM | NCI-H460 > 100 µM | CCRF-CEM > 100 µM | SF-539 > 100 µM | NCI-H23 > 100 µM | OVCAR-3 > 100 µM | 786-0 > 100 µM | SNB-19 > 100 µM | OVCAR-4 > 100 µM | HCC 2998 > 100 µM | SNB-75 > 100 µM | UACC-62 > 100 µM | SF-295 > 100 µM | SR > 100 µM | RPMI-8226 > 100 µM | RXF 393 > 100 µM
